Assay [1] deals with capsaicin-induced visceral pain. Briefly: Action on capsaicin-induced visceral pain model. Format: in vivo, male ddY mice. The settings on record: doses of 3 and 30 mg/kg p.o. 30 minutes before 0.1% capsaicin into the colon; mice, n=10; 60 minutes. The protocol:
It has been reported that a visceral pain is induced by the administration of capsaicin into the colon [Pain, Vol. 92, No. 3, pp. 335-342 (2001)].
A suspension of Compound 1-1 was prepared with an agate mortar using 0.5 w/v % MC.
Capsaicin (Sigma-Aldrich) was dissolved in a physiological saline solution containing 10% ethanol (Kanto Chemical co., Ltd.) and 10% polyoxyethylene (20) sorbitan monooleate (Tween 80, Wako Pure Chemical Industries, Ltd.), and the resultant solution was used. A test compound was orally administered in a volume of 10 mL/kg, and MC was administered to a control group in the same volume.
Male ddY mice (Japan SLC, Inc.) with a body weight of 27 g to 29 g were purchased and used in an experiment. After inspection and acclimation for 2 days or more, the mice showing favorable increases in body weight and no obvious abnormality were used. […]
After the oral administration of Compound 1-1 or 0.5 w/v % MC, each mouse was housed in a cage and left therein. […] Then, each of the mice was placed in an acrylic cage (8 cm in length×8 cm in width×15 cm in height) and recorded with a video (Sony) for 1 hour. After the recording, the following 4 behaviors and symptoms were measured as indexes of capsaicin-induced visceral pain at an interval of 5 minutes. […]

The test system of assay [2] is restraint stress-induced defecation. In words: Action on restraint stress-induced defecation. Format: in vivo, male Wistar rats. The settings on record: 10 mg/kg p.o. 1 hour before restraint stress; measured 1 hour after stress initiation; rats, n=10; control of each sub-table 1.06-1.71 g. As to the method:
An experiment was carried out according to the method of Kishibayashi et al. [Japanese Journal of Pharmacology, Vol. 69, No. 4, pp. 495-502 (1993)]. In the experiment, male Wistar rats aged 6 to 7 weeks (supplied from Charles River Laboratories Japan, Inc.) were used. […] The rats were lightly anesthetized with diethyl ether, and the thoracic trunk and the forelimbs were wrapped with a tape to produce mild stress. One hour after stress initiation, the wet weight of fecal pellets was measured. Each drug solution was orally administered 1 hour before restraint stress. A test compound was suspended at a concentration of 2 mg/mL in an aqueous solution of 0.5 w/v % methyl cellulose 400 cP and orally administered at a volume of 5 mL/kg (at a dose of 10 mg/kg). In a control, an aqueous solution of 0.5 w/v % methyl cellulose 400 cP was administered. Ten rats were used in each group. […] YM060, a serotonin 5-HT3 receptor antagonist [The Journal of Pharmacology and Experimental Therapeutics, Vol. 259, No. 2, pp. 815-819 (1991), Astellas Pharma. Inc., online, internet (URL: […].com/jp/companry/news/2006/pdf/060131.pdf)], which is being applied as a therapeutic agent for irritable bowel syndrome, was administered at a dose of 0.1 mg/kg.

SMILES strings stand for the structures.

In the case of `C[C@](O)(C(=O)Nc1cccc2c1C(=O)c1sccc1CS2(=O)=O)C(F)(F)F` [Compound 1-1], in assay [1], the “numbers of pain-related behaviors” value was “suppressed the pain-related behaviors”. Moreover, the “Wet weight of fecal pellets” value in assay [2] turned out to be 0.27 ± 0.06 g.

(Values after patent publication US20100267796A1, “THERAPEUTIC AGENT FOR IRRITABLE BOWEL SYNDROME” (KYOWA HAKKO KOGYO CO., LTD., priority 2006, published 2010).)
